# Results reported in the supplement of paper PMC10307832.
# Experiments:
# Assay in all cases: relative viability (nuclei count vs DMSO), 5 days (fraction); higher = more cells survive
# [1] = compound: CC1=CC(=CC=C1)NC2=NC(=CS2)C3=CC=NC=C3 + CC1(C)CCC(c2ccc(Cl)cc2)=C(CN2CCN(c3ccc(C(=O)NS(=O)(=O)c4ccc(N[C@H](CCN5CCOCC5)CSc5ccccc5)c(S(=O)(=O)C(F)(F)F)c4)cc3)CC2)C1 [Navitoclax] (partner 0.5 µM)
# In short: (§1)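 Relative viability was taken as the ratio of nuclei in treated wells to nuclei in vehicle wells. Lung cancer cell lines in 1536-well plates received compounds by pin tool one day after seeding, either one drug alone or a fixed anchor-drug dose plus five library-drug doses (not always all listed) in √10 steps. Nuclei were counted on 4× images after 5 days of treatment, and values are medians of duplicate plates.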
# [2] = compound: CC1=CC(=CC=C1)NC2=NC(=CS2)C3=CC=NC=C3 + CS(=O)(=O)CCNCc1ccc(-c2ccc3ncnc(Nc4ccc(OCc5cccc(F)c5)c(Cl)c4)c3c2)o1 [Lapatinib] (partner 2 µM)
# In short: as §1
# Masitinib + Luminespib = compound: Cc1ccc(NC(=O)c2ccc(CN3CCN(C)CC3)cc2)cc1Nc1nc(-c2cccnc2)cs1 [Masitinib] + CCNC(=O)c1noc(-c2cc(C(C)C)c(O)cc2O)c1-c1ccc(CN2CCOCC2)cc1 [Luminespib] (partner 0.01 µM)
# In short: as §1
# Masitinib + Dasatinib = compound: Cc1ccc(NC(=O)c2ccc(CN3CCN(C)CC3)cc2)cc1Nc1nc(-c2cccnc2)cs1 [Masitinib] + Cc1nc(Nc2ncc(C(=O)Nc3c(C)cccc3Cl)s2)cc(N2CCN(CCO)CC2)n1 [Dasatinib] (partner 0.075 µM)
# In short: as §1
Cell Line,relative viability ([1]; first compound 0.08 µM),relative viability ([1]; first compound 0.253 µM),relative viability ([1]; first compound 0.8 µM),relative viability ([1]; first compound 2.53 µM),relative viability ([1]; first compound 8 µM),relative viability ([2]; first compound 0.08 µM),relative viability ([2]; first compound 0.253 µM),relative viability ([2]; first compound 0.8 µM),relative viability ([2]; first compound 2.53 µM),relative viability ([2]; first compound 8 µM),relative viability (Masitinib + Luminespib; first compound 0.01 µM),relative viability (Masitinib + Luminespib; first compound 0.03162 µM),relative viability (Masitinib + Luminespib; first compound 0.1 µM),relative viability (Masitinib + Luminespib; first compound 0.3162 µM),relative viability (Masitinib + Luminespib; first compound 1 µM),relative viability (Masitinib + Dasatinib; first compound 0.01 µM),relative viability (Masitinib + Dasatinib; first compound 0.03162 µM),relative viability (Masitinib + Dasatinib; first compound 0.1 µM),relative viability (Masitinib + Dasatinib; first compound 0.3162 µM),relative viability (Masitinib + Dasatinib; first compound 1 µM)
SW 1573,0.916,0.965,0.924,1.1,0.841,1.13,0.977,1.15,1.38,1.08,0.172,0.231,0.214,0.261,0.302,0.452,0.463,0.526,0.52,0.476
NCI-H1355,0.783,0.69,0.591,0.555,0.577,0.723,0.713,0.652,0.656,0.651,0.643,0.564,0.766,0.623,0.738,0.69,0.485,0.701,0.436,0.69
NCI-H1651,0.894,1.2,0.948,1.05,0.899,0.721,0.704,0.865,0.713,0.781,0.823,1.23,0.822,0.75,0.769,0.403,0.469,0.443,0.383,0.419
NCI-H2023,0.958,0.961,0.945,0.916,0.715,0.661,0.698,0.771,0.749,0.473,0.61,0.664,0.786,0.69,0.753,0.551,0.602,0.543,0.395,0.513
LOU-NH91,0.611,0.619,0.625,0.774,0.434,0.576,0.613,0.686,0.705,0.551,0.307,0.32,0.337,0.272,0.372,0.557,0.511,0.54,0.442,0.546
NCI-H3122,1.02,1.04,1.07,1.08,1.04,1.05,1.08,1.05,1.09,1.08,0.109,0.0826,0.0942,0.109,0.0792,0.512,0.724,0.61,0.615,0.916
LCLC-97TM1,–,–,0.641,0.385,0.418,–,–,1.04,1.03,1.27,–,0.777,0.857,0.946,0.857,–,0.961,0.903,0.943,0.84
NCI-H647,0.799,0.887,0.938,1.1,0.942,0.958,0.977,0.849,0.932,0.917,0.223,0.141,0.13,0.195,0.259,0.181,0.208,0.186,0.171,0.155
NCI-H838,0.954,1.09,1.04,1.09,0.924,0.822,0.871,0.924,0.742,0.865,0.314,0.309,0.245,0.241,0.263,0.304,0.258,0.344,0.266,0.229
H3255,0.573,0.304,0.561,0.533,0.496,0.225,0.325,0.203,0.195,0.211,0.586,0.772,0.611,1.02,0.838,0.335,0.363,0.336,0.349,0.339
NCI-H1793,–,0.521,0.523,0.438,0.402,–,0.557,0.642,0.565,0.657,0.165,0.166,0.182,0.162,0.567,0.415,0.398,0.396,0.356,0.462
LXF-289,0.944,0.921,0.939,0.908,0.822,0.815,0.93,0.938,0.823,0.807,0.581,0.796,0.775,0.746,0.541,0.223,0.206,0.238,0.202,0.207
HCC-827,0.989,0.937,0.956,1.02,0.935,0.204,0.187,0.191,0.187,0.179,0.597,0.906,0.816,0.558,0.583,0.269,0.286,0.275,0.314,0.293
LK-2,0.917,0.958,0.901,–,1.46,0.784,0.903,1.09,–,1.33,0.183,0.183,0.132,0.151,0.175,0.336,0.243,0.289,0.306,0.263
BEN,0.0747,0.0619,0.0712,0.0922,0.084,0.733,0.62,0.498,0.669,0.741,0.436,–,0.631,0.378,0.37,0.341,–,0.271,0.308,0.281
NCI-H2347,0.613,0.751,0.599,0.83,0.632,0.731,0.767,0.635,0.95,0.757,0.758,0.299,0.41,0.556,0.326,0.325,0.293,0.274,0.279,0.262
NCI-H1395,0.984,1.1,1.04,0.971,0.993,0.882,0.733,0.982,0.761,0.818,0.626,0.682,0.864,0.506,0.611,0.415,0.404,0.404,0.395,0.426
201T,1.2,1.22,1.21,1.26,0.993,0.982,0.956,0.97,0.767,0.752,0.821,1.13,0.944,1.07,0.993,0.53,0.594,0.521,0.42,0.491
NCI-H520,1.04,1.09,1.15,1.12,1.15,0.883,0.827,0.932,0.777,0.954,0.223,0.24,0.24,0.217,0.2,0.245,0.225,0.247,0.292,0.215
NCI-H727,0.458,0.372,0.383,0.345,0.269,0.489,0.777,0.674,0.706,0.668,0.494,0.324,0.831,0.341,0.416,0.332,0.315,0.346,0.383,0.35
HCC-15,0.698,0.661,0.65,0.615,0.507,0.809,0.841,0.848,0.845,0.739,0.306,0.389,0.37,0.476,0.141,0.516,0.617,0.68,0.512,0.59
NCI-H1650,1.07,0.938,0.935,1.13,0.811,0.801,0.735,0.753,0.445,0.176,0.195,0.227,0.221,0.191,0.206,0.366,0.32,0.348,0.276,0.27
NCI-H460,1.13,1.08,1.08,1.13,1,0.875,0.901,0.887,1.11,0.692,0.0454,0.0362,0.0338,0.0453,0.0276,0.392,0.447,0.561,0.344,0.485
EPLC-272H,1.02,–,0.871,–,0.979,0.831,–,0.867,–,0.908,0.27,0.237,0.262,0.195,0.232,0.509,0.416,0.337,0.373,0.242
